Source: patent US9150528B2, “Compound having detrusor muscle-contracting activity and urethral sphincter muscle-relaxing activity” (ONO PHARMACEUTICAL CO., LTD., priority 2009, dated 2015)

What was measured:
normal rats = assay: Blood pressures and heart rates in normal rats; format: in vivo, rat; settings: oral
Protocol: The blood pressures and heart rates of female Wistar rats were measured in accordance with the following procedure. On the day of measurement, indwelling of catheters for blood pressure•heart rate measurement was carried out under anesthesia with ether. The back of the neck of each rat was incised; a feeding catheter (Atom Medical Corporation) filled with heparinized physiological saline was introduced from the back of the neck; the catheter was inserted into the common carotid artery; and the surgical incision was closed. The measurements were carried out in a Bollmann cage under the conscious state, and the evaluations were carried out after confirming that the individual parameters were stabilized. After confirming the stabilization of blood pressure and heart rate, the test compound which was prepared using injectable water containing equimolar NaOH was orally administered at a dose of 5 mL/kg.
The catheter drawn from the back of the neck was connected to a pressure transducer (DX-200, NIHON KOHDEN CORP.), and the blood pressures and heart rates were measured using an amplifier for pressure measurement (Gould Instrument). The blood pressures and heart rates were recorded using a recorder (LINEARCORDERWR3320, GRAPHTEC). For each individual, rates of increase and decrease in average blood pressure and heart rate before administration and 30, 60, 120, and 180 min after administration were calculated with respect to the values of each individual before administration. Changes in blood pressure and heart rate before and after administration of the test compound were evaluated.

[1] = system: underactive bladder models; assay: Residual urinary volumes and bladder capacities in underactive bladder models (cystometry); format: in vivo, rat; settings: 0.01 mg/kg, oral, underactive bladder model rats
Protocol: The underactive bladder models were constructed in accordance with the following procedure. Female Wistar rats (8 to 9 weeks age) were anesthetized by intraperitoneal administration of Somnopentyl (40 mg/kg), followed by dorsal shaving, and fixed in abdominal positions. Each of the dorsal areas was disinfected with chlorhexidine gluconate (5% hibitane liquid). The waist area was median-incised to expose the spinal column. After excision of the fifth lumbar spinous process, a silicone rubber was inserted into the sixth lumbar direction from a hole bored by a mini drill. For the purpose of avoiding infections, after completion of the surgical operation, benzylpenicillin potassium (25000 U/0.25 mL/body) was added dropwise to the incised area. The muscle and skin of the incised area were sutured with silk threads, and iodine tincture was applied to the sutured area. After the operation, maintenance of voiding was carried out by manual compressions three times daily. For the purpose of avoiding infections, potassium penicillin G (1.25 units/body) was administered subcutaneously. More than 5 days prior to cystometric evaluation, a catheter for cystometrogram was indwelled in the bladder. Anesthesia with sodium pentobarbital (40 mg/kg by intraperitoneal administration) and incision along the midline of the abdomen were carried out, followed by incision of the apex of the bladder. A catheter for cystometrogram filled with physiological saline was inserted into the bladder from a hole of the apical area, and fixed by ligation using silk suture threads. […]
The rats were anesthetized with ether and housed in a Bollmann cage 2 weeks after the construction of the models. To the front end of each of the bladder catheters, a pressure transducer via a three-way cock was connected, and the intravesical pressure was recorded using a strain pressure amplifier•recorder. […]
[…] After 1 hr, physiological saline was perfused into the bladder at a flow rate of 2 mL/h and voiding parameters (bladder capacity and residual urinary volume) were measured. […] Voiding parameters were calculated for each cystometry. […]

[2] = system: urinary excretion dysfunction models; assay: Urinary excretion dysfunction models, maximal urinary flow rate; format: in vivo; settings: 60 ng/kg/h continuous intravenous, cynomolgus monkey urinary excretion dysfunction model
Description: Urinary excretion dysfunction models were constructed in accordance with the following procedure. After anesthesia of cynomolgus monkeys, the region from the suprapubic area to the abdominal area was shaved, followed by fixing in a dorsal position. The shaved region was disinfected and the four legs were fixed. Using an electrosurgical knife, the skin region from the suprapubic area to the umbilical area and the peritoneal membrane were sequentially incised, followed by damage to the pelvic nerve and removal of the uterus. After the surgical operation, viccillin-containing physiological saline was added dropwise to the incised area. The peritoneal membrane and skin of the incised area were sutured with silk threads and disinfected. Viccillin was administered for 7 consecutive days after surgery. Meloxicam was administered once daily for 7 consecutive days to manage pain in the perioperative period.
The cynomolgus monkeys were seated on monkey chairs, followed by retention of the hands and legs with strings. Injectable water was administered orally, and physiological saline and the test compound (60 ng/kg/h) were continuously administered intravenously to allow urination freely. The maximal urinary flow rate was measured using a urine weighing sensor.

bladder detrusor = assay: Contraction of isolated rat bladder strip specimens (Magnus system), KCl-induced contraction; format: cell-based; settings: for Contractility of the bladder detrusor according to the compound concentration treated: rat bladder strip
Protocol: (§1) Rats were anesthetized with pentobarbital, followed by abdominal incision to remove the bladders and the urethras. The bladder bodies were cut in the longitudinal direction to prepare strip specimens with a size of about 10×3 mm. Additionally, each of the urethras was also cut in the longitudinal direction to prepare specimens with a size of about 10×3 mm. The prepared specimens were suspended in Krebs buffer (37° C., 5 mL), which was aerated with a mixed gas of 95% O2 and 5% CO2. The tension values of the specimens were measured using a Magnus system equipped with an isometric transducer and an amplifier, and the measured values were recorded on a computer via a data collection system.
The specimens were suspended with a load of about 0.5 g. More than 1 hr later, potassium chloride (100 mmol/L) was added and the maximal contraction response was observed. After washing with Krebs buffer, the specimens were suspended with a load of about 0.5 g for stabilization. A potassium chloride solution (7.5 mmol/L) was added to induce the contraction of the specimens. After the contraction-inducing response was stabilized, the test compound was added in a cumulative manner and the response was observed before and after the treatment with the drug.

urethral sphincter = assay: Relaxation of isolated rat urethra specimens (Magnus system), phenylephrine-induced contraction; format: cell-based; settings: for Contractility of the urethral sphincter according to the compound concentration treated: rat urethra specimen
Protocol: as §1
The specimens were suspended with a load of about 0.5 g. More than 1 hr later, potassium chloride (100 mmol/L) was added to the suspension and the maximal contraction response was observed. After washing with Krebs buffer, the specimens were suspended with a load of about 0.5 g for stabilization. Thereafter, a phenylephrine (100 μmol/L) was added to the suspension to induce the contraction of the specimens. After stabilization of the contraction-inducing response, the test compound was added in a cumulative manner and the response was observed before and after the treatment of the drug.

`C[C@@](O)(C/C=C/[C@H]1CCC(=O)[C@@H]1CCSc1nc(C(=O)O)cs1)CCC(F)=C(F)F` [Compound 17, 2-[(2-{(1R,5R)-2-oxo-5-[(1E,4S)-7,8,8-trifluoro-4-hydroxy-4-methyl-1,7-octadien-1-yl]cyclopentyl}ethyl)thio]-1,3-thiazole-4-carboxylic acid] was tested, and the “effect on the blood pressure” value (normal rats; 0.3 mg/kg) was “no effect”, the “effect on the heart rate” value (normal rats; 0.3 mg/kg) was “no effect” and the “effect on the blood pressure” value (normal rats; 1 mg/kg) was “no effect”. The bladder capacity ([1]; versus normal group) was “no effect”, the residual urinary volume ([1]; versus vehicle group) was “significant reduction” and the “improvement in maximal urinary flow rate over the vehicle group” value [2] was 61%. The “Contractility of the bladder detrusor according to the compound concentration treated” value (bladder detrusor; 0 nmol/L) was 3 % of 7.5 mmol/L KCl, the “Contractility of the bladder detrusor according to the compound concentration treated” value (bladder detrusor; 1 nmol/L) was −2 % of 7.5 mmol/L KCl and the “Contractility of the bladder detrusor according to the compound concentration treated” value (bladder detrusor; 10 nmol/L) was 23 % of 7.5 mmol/L KCl. The “Contractility of the bladder detrusor according to the compound concentration treated” value (bladder detrusor; 100 nmol/L) was 100 % of 7.5 mmol/L KCl, the “Contractility of the bladder detrusor according to the compound concentration treated” value (bladder detrusor; 1 μmol/L) was 180 % of 7.5 mmol/L KCl and the “Contractility of the bladder detrusor according to the compound concentration treated” value (bladder detrusor; 10 μmol/L) was 259 % of 7.5 mmol/L KCl. The “effect on the bladder detrusor” value (bladder detrusor; summary in words of Table 1) was “contracted the bladder detrusor”, the “Contractility of the urethral sphincter according to the compound concentration treated” value (urethral sphincter; 0 nmol/L) was 5 % of phenylephrine and the “Contractility of the urethral sphincter according to the compound concentration treated” value (urethral sphincter; 1 nmol/L) was −2 % of phenylephrine. For the same molecule, the “Contractility of the urethral sphincter according to the compound concentration treated” value (urethral sphincter; 10 nmol/L) was −9 % of phenylephrine, the “Contractility of the urethral sphincter according to the compound concentration treated” value (urethral sphincter; 100 nmol/L) was −36 % of phenylephrine and the “Contractility of the urethral sphincter according to the compound concentration treated” value (urethral sphincter; 1 μmol/L) was −83 % of phenylephrine. The “Contractility of the urethral sphincter according to the compound concentration treated” value (urethral sphincter; 10 μmol/L) was −89 % of phenylephrine and the “effect on the urethral sphincter” value (urethral sphincter; summary in words of Table 2) was “relaxed the urethral sphincter”.
